Results as given in ChEMBL document CHEMBL6114999, “Natural pyrrolo[1,2-a]quinazolinone derivatives: Design, synthesis, characterization, and bio-evaluation as novel antiviral agents” (Eur J Med Chem, 2025).
The source made the active and inactive calls. The rule behind the calls is not given here.

Tests used:
[1] = Cytotoxicity against human HEp-2 cells incubated for 48 hrs by MTT assay; type: toxicity, cell-based
Coxsackievirus B3 [2] = experiment: Antiviral activity against CVB3 infected in HEp-2 cells assessed as inhibition of virus-induced cell death at 25 to 100 uM incubated for 48 hrs by MTT assay; type: functional, organism-based; conditions: dose 25-100 µM
[3] = Cytotoxicity against human RD cells incubated for 48 hrs by MTT assay; type: toxicity, cell-based
Coxsackievirus B3 [4] = experiment: Antiviral activity against CVB3 infected in HEp-2 cells assessed as inhibition of virus-induced cell death at 200 uM incubated for 48 hrs by MTT assay; type: functional, organism-based
Enterovirus [5] = experiment: Antiviral activity against EV71 infected in human RD cells assessed as inhibition of virus-induced cell death at 200 uM incubated for 48 hrs by MTT assay; type: functional, organism-based; conditions: 71
[6] = Selectivity index, ratio of CC50 for cytotoxicity against HEp-2 cells to EC50 for antiviral activity against CVB3 infected in HEp-2 cells; type: toxicity, cell-based; conditions: human, read-out: Ratio CC50/EC50
Coxsackievirus B3 [7] = experiment: Antiviral activity against CVB3 infected in HEp-2 cells assessed as protection from virus-induced cytopathogenicity incubated for 48 hrs by MTT assay; type: functional, organism-based; conditions: Enterovirus B, HEp-2, 48 h
Coxsackievirus B3 [8] = experiment: Antiviral activity against CVB3 infected in HEp-2 cells assessed as inhibition of virus-induced cell death at 25 uM incubated for 48 hrs by MTT assay relative to control; type: functional; conditions: Enterovirus B
Enterovirus [9] = experiment: Antiviral activity against EV71 infected in human RD cells assessed as inhibition of virus-induced cell death at 25 uM incubated for 48 hrs by MTT assay relative to control; type: functional; conditions: Enterovirus, 71, RD
Enterovirus [10] = experiment: Antiviral activity against EV71 infected in human RD cells assessed as inhibition of virus-induced cell death at 50 uM incubated for 48 hrs by MTT assay relative to control; type: functional; conditions: Enterovirus, 71, RD
Enterovirus [11] = experiment: Antiviral activity against EV71 infected in human RD cells assessed as inhibition of virus-induced cell death at 100 uM incubated for 48 hrs by MTT assay relative to control; type: functional, 71; conditions: Enterovirus, 71, RD
Coxsackievirus B3 [12] = experiment: Antiviral activity against CVB3 infected in HEp-2 cells assessed as inhibition of virus-induced cell death at 50 uM incubated for 48 hrs by MTT assay relative to control; type: functional; conditions: Enterovirus B
Coxsackievirus B3 [13] = experiment: Antiviral activity against CVB3 infected in HEp-2 cells assessed as inhibition of virus-induced cell death at 100 uM incubated for 48 hrs by MTT assay relative to control; type: functional; conditions: Enterovirus B, HEp-2, 48 h
Enterovirus [14] = experiment: Antiviral activity against EV71 infected in human RD cells assessed as inhibition of virus-induced cell death at 25 to 100 uM incubated for 48 hrs by MTT assay; type: functional, organism-based; conditions: 71, dose 25-100 µM
[15] = Selectivity index, ratio of CC50 for cytotoxicity against human RD cells to EC50 for antiviral activity against EV71 infected in human RD cells; type: toxicity, cell-based; conditions: read-out: Ratio CC50/EC50
Enterovirus [16] = experiment: Antiviral activity against EV71 infected in human RD cells assessed as protection from virus-induced cytopathogenicity incubated for 48 hrs by MTT assay; type: functional, organism-based; conditions: Enterovirus, 71, RD

COc1cc(CNC(=O)C23CCC(=O)N2c2ccccc2C(=O)N3C)ccc1O (stereo not given)
CC50 at 48 h [1]: 251 µM | antiviral activity call (active/inactive) (Coxsackievirus B3 [2]): Active | CC50 at 48 h [3]: 243 µM

O=C1NC2(C(=O)O)CCC(=O)N2c2ccccc21 (stereo not given)
inhibition (Coxsackievirus B3 [4]): Active; Compared To Ribavirin The Antiviral Effect Is Comparable Or Slightly Inferior | CC50 at 48 h [1]: 296 µM | inhibition (Enterovirus [5]): inactive | selectivity ratio [6]: 2.1 | EC50 (Coxsackievirus B3 [7]): 143 µM | CC50 at 48 h [3]: 323 µM

COC(=O)C(CCSC)NC(=O)C12CCC(=O)N1c1ccccc1C(=O)N2C (stereo not given)
inhibition at 25 µM (Coxsackievirus B3 [8]): 20.8% | inhibition at 25 µM (Enterovirus [9]): 3.2% | inhibition at 50 µM (Enterovirus [10]): 6.2% | CC50 at 48 h [1]: 200 µM | inhibition at 100 µM (Enterovirus [11]): 1.3% | selectivity ratio [6]: 3.6 | inhibition at 50 µM (Coxsackievirus B3 [12]): 20.2% | inhibition at 100 µM (Coxsackievirus B3 [13]): 27.3% | CC50 at 48 h [3]: 252 µM

CSCCNC(=O)C12CCC(=O)N1c1ccccc1C(=O)N2 (stereo not given)
inhibition at 25 µM (Coxsackievirus B3 [8]): 7.9% | inhibition at 25 µM (Enterovirus [9]): 5.7% | inhibition at 50 µM (Enterovirus [10]): 7.3% | CC50 at 48 h [1]: 210 µM | inhibition at 100 µM (Enterovirus [11]): 3.9% | inhibition at 50 µM (Coxsackievirus B3 [12]): 12.3% | inhibition at 100 µM (Coxsackievirus B3 [13]): 26.9% | CC50 at 48 h [3]: 288 µM

COC(=O)C(Cc1c[nH]c2ccccc12)NC(=O)C12CCC(=O)N1c1ccc(Cl)cc1C(=O)N2 (stereo not given)
inhibition (Enterovirus [14]): Active | inhibition at 25 µM (Coxsackievirus B3 [8]): 36.6% | inhibition at 25 µM (Enterovirus [9]): 60.6% | inhibition at 50 µM (Enterovirus [10]): 75.3% | CC50 at 48 h [1]: 171 µM | antiviral activity call (active/inactive) (Coxsackievirus B3 [2]): Active | inhibition at 100 µM (Enterovirus [11]): 74% | selectivity ratio [6]: 3.1 | selectivity ratio [15]: 6.4 | inhibition at 50 µM (Coxsackievirus B3 [12]): 45% | inhibition at 100 µM (Coxsackievirus B3 [13]): 63.7% | EC50 (Coxsackievirus B3 [7]): 55.6 µM | EC50 (Enterovirus [16]): 24.8 µM | CC50 at 48 h [3]: 158 µM

CC(NC(=O)C12CCC(=O)N1c1ccccc1C(=O)N2)c1ccccc1 (stereo not given)
inhibition (Enterovirus [14]): Active | CC50 at 48 h [1]: 205 µM | selectivity ratio [15]: 7.9 | EC50 (Enterovirus [16]): 32.4 µM | CC50 at 48 h [3]: 256 µM

COC(=O)C(CCSC)NC(=O)C12CCC(=O)N1c1ccccc1C(=O)N2 (stereo not given)
inhibition at 25 µM (Coxsackievirus B3 [8]): 13.3% | inhibition at 25 µM (Enterovirus [9]): 6.1% | inhibition at 50 µM (Enterovirus [10]): 5% | CC50 at 48 h [1]: 212 µM | inhibition at 100 µM (Enterovirus [11]): 4.8% | inhibition at 50 µM (Coxsackievirus B3 [12]): 21.7% | inhibition at 100 µM (Coxsackievirus B3 [13]): 27.9% | CC50 at 48 h [3]: 245 µM

O=C1NC2(C(=O)NCCc3c[nH]c4ccccc34)CCC(=O)N2c2ccccc21 (stereo not given)
inhibition (Enterovirus [14]): Active | inhibition at 25 µM (Coxsackievirus B3 [8]): 28.9% | inhibition at 25 µM (Enterovirus [9]): 64.1% | inhibition at 50 µM (Enterovirus [10]): 73.1% | CC50 at 48 h [1]: 185 µM | antiviral activity call (active/inactive) (Coxsackievirus B3 [2]): Active | inhibition at 100 µM (Enterovirus [11]): 67% | selectivity ratio [6]: 2.8 | selectivity ratio [15]: 11.2 | inhibition at 50 µM (Coxsackievirus B3 [12]): 44.4% | inhibition at 100 µM (Coxsackievirus B3 [13]): 62.1% | EC50 (Coxsackievirus B3 [7]): 65.8 µM | EC50 (Enterovirus [16]): 18.6 µM | CC50 at 48 h [3]: 208 µM

COC(=O)C(Cc1c[nH]c2ccccc12)NC(=O)C12CCC(=O)N1c1ccccc1C(=O)N2 (stereo not given)
inhibition (Enterovirus [14]): Active | inhibition at 25 µM (Coxsackievirus B3 [8]): 30.8% | inhibition at 25 µM (Enterovirus [9]): 65.8% | inhibition at 50 µM (Enterovirus [10]): 74% | CC50 at 48 h [1]: 177 µM | antiviral activity call (active/inactive) (Coxsackievirus B3 [2]): Active | inhibition at 100 µM (Enterovirus [11]): 89.1% | selectivity ratio [6]: 4.1 | selectivity ratio [15]: 8 | inhibition at 50 µM (Coxsackievirus B3 [12]): 45.7% | inhibition at 100 µM (Coxsackievirus B3 [13]): 83.1% | EC50 (Coxsackievirus B3 [7]): 43 µM | EC50 (Enterovirus [16]): 28.8 µM | CC50 at 48 h [3]: 230 µM

O=C1NC2(C(=O)O)CCC(=O)N2c2ccc(Cl)cc21 (stereo not given)
inhibition (Coxsackievirus B3 [4]): Active; Compared To Ribavirin The Antiviral Effect Is Comparable Or Slightly Inferior | CC50 at 48 h [1]: 245 µM | inhibition (Enterovirus [5]): inactive | selectivity ratio [6]: 1.7 | EC50 (Coxsackievirus B3 [7]): 142 µM | CC50 at 48 h [3]: 317 µM

CC(NC(=O)C12CCC(=O)N1c1ccccc1C(=O)N2C)c1ccccc1 (stereo not given)
CC50 at 48 h [1]: 223 µM | CC50 at 48 h [3]: 234 µM

CN1C(=O)c2ccccc2N2C(=O)CCC12C(=O)O (stereo not given)
inhibition (Coxsackievirus B3 [4]): Active; Compared To Ribavirin The Antiviral Effect Is Comparable Or Slightly Inferior | CC50 at 48 h [1]: 276 µM | inhibition (Enterovirus [5]): inactive | selectivity ratio [6]: 1.8 | EC50 (Coxsackievirus B3 [7]): 152 µM | CC50 at 48 h [3]: 327 µM
